Reference: the supplement of paper PMC11451515

System: NOMO1
Test: cell viability relative to DMSO control; higher = less cytotoxic
Conditions: 48 h
Summary of the method: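 Library compounds in DMSO were pin-dosed in an 11-point threefold series (47 μM to 0.79 nM) onto leukemia cells in 1536-well plates (5 μl). Plates held 500 cells/well of NOMO1 or SEM or 1000 cells/well of P12-Ichikawa, each adapted for at least four passages in each medium. Luminescence was read with CellTiter-Glo One after 48 h at 37°C. Viability means the per-plate percentage relative to DMSO wells, using cell-free wells as background.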

[1] = HPLM + 10% dialyzed FBS, 0.000781 µM
[2] = HPLM + 10% dialyzed FBS, 0.00234 µM
[3] = HPLM + 10% dialyzed FBS, 0.00702 µM
[4] = HPLM + 10% dialyzed FBS, 0.0211 µM
[5] = HPLM + 10% dialyzed FBS, 0.0632 µM
[6] = HPLM + 10% dialyzed FBS, 0.19 µM
[7] = HPLM + 10% dialyzed FBS, 0.569 µM
[8] = HPLM + 10% dialyzed FBS, 1.71 µM
[9] = HPLM + 10% dialyzed FBS, 5.12 µM
[10] = HPLM + 10% dialyzed FBS, 15.4 µM
[11] = HPLM + 10% dialyzed FBS, 46.1 µM
[12] = RPMI 5 mM glucose + 10% FBS, 0.000781 µM
[13] = RPMI 5 mM glucose + 10% FBS, 0.00234 µM
[14] = RPMI 5 mM glucose + 10% FBS, 0.00702 µM
[15] = RPMI 5 mM glucose + 10% FBS, 0.0211 µM
[16] = RPMI 5 mM glucose + 10% FBS, 0.0632 µM
[17] = RPMI 5 mM glucose + 10% FBS, 0.19 µM
[18] = RPMI 5 mM glucose + 10% FBS, 0.569 µM
[19] = RPMI 5 mM glucose + 10% FBS, 1.71 µM
[20] = RPMI 5 mM glucose + 10% FBS, 5.12 µM
[21] = RPMI 5 mM glucose + 10% FBS, 15.4 µM
[22] = RPMI 5 mM glucose + 10% FBS, 46.1 µM
[23] = RPMI 5 mM glucose + 10% dialyzed FBS, 0.000781 µM
[24] = RPMI 5 mM glucose + 10% dialyzed FBS, 0.00234 µM
[25] = RPMI 5 mM glucose + 10% dialyzed FBS, 0.00702 µM
[26] = RPMI 5 mM glucose + 10% dialyzed FBS, 0.0211 µM
[27] = RPMI 5 mM glucose + 10% dialyzed FBS, 0.0632 µM
[28] = RPMI 5 mM glucose + 10% dialyzed FBS, 0.19 µM
[29] = RPMI 5 mM glucose + 10% dialyzed FBS, 0.569 µM
[30] = RPMI 5 mM glucose + 10% dialyzed FBS, 1.71 µM
[31] = RPMI 5 mM glucose + 10% dialyzed FBS, 5.12 µM
[32] = RPMI 5 mM glucose + 10% dialyzed FBS, 15.4 µM
[33] = RPMI 5 mM glucose + 10% dialyzed FBS, 46.1 µM

Row | Compound | cell viability [1] [%] | cell viability [2] [%] | cell viability [3] [%] | cell viability [4] [%] | cell viability [5] [%] | cell viability [6] [%] | cell viability [7] [%] | cell viability [8] [%] | cell viability [9] [%] | cell viability [10] [%] | cell viability [11] [%] | cell viability [12] [%] | cell viability [13] [%] | cell viability [14] [%] | cell viability [15] [%] | cell viability [16] [%] | cell viability [17] [%] | cell viability [18] [%] | cell viability [19] [%] | cell viability [20] [%] | cell viability [21] [%] | cell viability [22] [%] | cell viability [23] [%] | cell viability [24] [%] | cell viability [25] [%] | cell viability [26] [%] | cell viability [27] [%] | cell viability [28] [%] | cell viability [29] [%] | cell viability [30] [%] | cell viability [31] [%] | cell viability [32] [%] | cell viability [33] [%]
1 | O=C(NCCCNc1nc(Nc2cccc(NC(=O)N3CCCC3)c2)ncc1I)c1cccs1 | 81.8 | 91 | 88.4 | 79.3 | 80.9 | 72 | 91.5 | 51.5 | 67.9 | 84.3 | 78.7 | 80.4 | 89.7 | 78 | 81.5 | 76.1 | 76.9 | 80 | 65.9 | 77 | 83.1 | 89.9 | 89.1 | 89.2 | 89.3 | 75 | 84.6 | 84.4 | 80 | 59.1 | 83.1 | 75.7 | 76.9
2 | CC[C@H](NC(C)C)[C@H](O)c1ccc(O)c2[nH]c(=O)ccc12 | 113 | 103 | 108 | 97.6 | 108 | 113 | 124 | 107 | 108 | 96.8 | 104 | 91.2 | 95.8 | 88.7 | 95.7 | 84.6 | 107 | 101 | 94.5 | 97 | 84.1 | 90.6 | 84.7 | 109 | 104 | 94.4 | 102 | 107 | 96.9 | 95.3 | 94.6 | 87 | 91.2
3 | CCCNCC(O)COc1ccccc1C(=O)CCc1ccccc1 (centres undefined) | 82.6 | 117 | 113 | 106 | 121 | 120 | 123 | 112 | 124 | 114 | 96.9 | 23.6 | 106 | 106 | 117 | 111 | 109 | 111 | 122 | 124 | 111 | 107 | 108 | 98.5 | 124 | 122 | 124 | 111 | 111 | 121 | 118 | 119 | 103
4 | CC(C[N+](C)(C)C)OC(N)=O (centres undefined) | 128 | 124 | 121 | 119 | 131 | 128 | 116 | 117 | 119 | 139 | 103 | 115 | 109 | 119 | 106 | 118 | 108 | 108 | 105 | 100 | 101 | 97.5 | – | – | – | – | – | – | – | – | – | – | –
5 | C[C@H](NC(=O)Cc1cc(F)cc(F)c1)C(=O)N[C@@H]1C(=O)N(C)c2ccccc2-c2ccccc21 | 99 | 107 | 122 | 126 | 121 | 123 | 96.2 | 118 | 55.6 | 9.2 | 6.63 | 107 | 106 | 115 | 110 | 120 | 112 | 116 | 121 | 109 | 27.3 | 8.18 | 101 | 109 | 121 | 120 | 124 | 117 | 125 | 114 | 125 | 63.6 | 13.8
6 | O=C(O)[C@@H](c1ccc(OCc2ccc3ccccc3n2)cc1)C1CCCC1 | 118 | 114 | 118 | 126 | 106 | 119 | 115 | 119 | 110 | 109 | 90.5 | 104 | 117 | 107 | 109 | 125 | 111 | 104 | 121 | 113 | 102 | 120 | 119 | 101 | 122 | 113 | 123 | 119 | 103 | 108 | 106 | 100 | 95.4
7 | FC1=CC=C(CN2\C=C/C=C(/C(=O)N[C@@H](COC3=CC4=C(NC(=O)N4)C=C3)C5=CC=CC=C5)C2=O)C=C1F | 86.7 | 91.5 | 97 | 111 | 103 | 109 | 97.6 | 82.8 | 64.6 | 53.8 | 43.5 | 77.8 | 80.1 | 88.4 | 79.9 | 82.8 | 96.6 | 85.8 | 86.8 | 69.2 | 60.3 | 45.9 | 88.7 | 86.8 | 97.7 | 82.8 | 84.4 | 89.5 | 82.3 | 73.9 | 63.3 | 57.6 | 44.3
8 | C[C@H]1C[C@H]2[C@@H]3CCC4=CC(=O)C=C[C@]4(C)[C@H]3C(=O)C[C@]2(C)[C@@]1(O)C(=O)CO | 89.9 | 80.3 | 81.2 | 103 | 86.3 | 109 | 98.9 | 96 | 86.8 | 99.8 | 83 | 82.7 | 90.2 | 86.9 | 91.6 | 80.8 | 79.9 | 81.3 | 83.8 | 86.5 | 86.3 | 92.2 | 83 | 78.4 | 77.9 | 56.5 | 78.8 | 82.4 | 99.8 | 85.1 | 94.4 | 78 | 93.2
9 | CN[C@H]1[C@H](O[C@@H]2[C@H](O[C@@H]3[C@@H](O)[C@@H](O)[C@@H](NC(=N)N)[C@@H](O)[C@H]3NC(=N)N)O[C@H](C)[C@@]2(O)C=O)O[C@@H](CO)[C@@H](O)[C@H]1O | 117 | 115 | 118 | 111 | 130 | 120 | 101 | 96.1 | 89 | 66.9 | 23.7 | 109 | 113 | 112 | 109 | 112 | 104 | 103 | 111 | 96.6 | 101 | 26.1 | 106 | 107 | 103 | 113 | 114 | 105 | 102 | 109 | 105 | 87.1 | 26.2
10 | O=C1CCC[C@@H]2[C@H]3CCC[N+]4([O-])CCC[C@@H](CN12)[C@@H]34 (some centres undefined) | 75.3 | 92.3 | 98.9 | 87.6 | 105 | 98.2 | 88.4 | 94.5 | 56.9 | 10.1 | 5.34 | 83.5 | 86.8 | 86.1 | 92.7 | 98.7 | 92 | 107 | 94.1 | 64.3 | 22 | 6.85 | 79.1 | 88.7 | 93.2 | 97.4 | 97.8 | 98.7 | 94.4 | 88.9 | 51.3 | 29.7 | 5.35
11 | N#CC1(c2ccc(NC(=O)c3cccnc3NCc3ccncc3)cc2)CCCC1 | 112 | 110 | 110 | 121 | 114 | 98.4 | 108 | 95.2 | 103 | 91.4 | 93.1 | 99.5 | 106 | 99.2 | 102 | 113 | 106 | 97.8 | 104 | 103 | 105 | 98.1 | 110 | 105 | 116 | 115 | 120 | 109 | 104 | 106 | 113 | 104 | 99.8
12 | CC(=O)OCC(=O)[C@@]12OC(C)(C)O[C@@H]1C[C@H]3[C@@H]4C[C@H](F)C/5=C/C(=O)/C=C\[C@]5(C)[C@@]4(F)[C@@H](O)C[C@]23C | 120 | 117 | 115 | 126 | 114 | 115 | 105 | 115 | 112 | 120 | 122 | 103 | 107 | 103 | 119 | 114 | 109 | 111 | 113 | 116 | 123 | 128 | 109 | 108 | 104 | 113 | 111 | 132 | 116 | 132 | 131 | 121 | 144
13 | Cc1ccc(NC(=O)Nc2cc(C(F)(F)F)ccc2F)cc1Nc1ccc2c(c1)NC(=O)/C2=C\c1ccc[nH]1 | – | – | – | – | – | – | – | – | – | – | – | 108 | 126 | 118 | 124 | 133 | 139 | 149 | 161 | 136 | 132 | 40.4 | 116 | 124 | 140 | 140 | 149 | 150 | 149 | 160 | 154 | 115 | 28.1
14 | COc1cc(Nc2ncc(F)c(Nc3ccc4c(n3)N(COP(=O)(O)O)C(=O)C(C)(C)O4)n2)cc(OC)c1OC | 93.5 | 94.8 | 101 | 97.2 | 122 | 106 | 87.6 | 99.5 | 116 | 93.5 | 91.1 | 80.8 | 90.2 | 94.1 | 100 | 103 | 98.6 | 95.6 | 94.4 | 94.1 | 94.2 | 92.6 | 101 | 89 | 90.8 | 80.2 | 89.6 | 102 | 88.5 | 86.6 | 94.6 | 89.4 | 99.1
15 | OCCNC1CCCc2c1[nH]c1ccc(-c3ccccc3)cc21 (centres undefined) | 81.8 | 93.5 | 106 | 105 | 117 | 112 | 109 | 105 | 104 | 87.1 | 11.2 | 93.4 | 103 | 109 | 105 | 111 | 96.5 | 109 | 110 | 100 | 98.6 | 14.7 | 83.7 | 97.4 | 106 | 105 | 111 | 99.4 | 104 | 96.3 | 105 | 88.6 | 22.7
16 | NCCCC(O)(P(=O)(O)O)P(=O)(O)O.O.O.O.[Na+] | – | – | – | – | – | – | – | – | – | – | – | 102 | – | – | – | 117 | 117 | 102 | 106 | 102 | – | – | – | 116 | 107 | 123 | 115 | 110 | 111 | 113 | 114 | 87.8 | 61.7
